Test [1] concerns the target dopaminergic receptors D3 (Homo sapiens, UniProt P35462). The test is described as follows: Radioligand binding assay, dopaminergic D3 receptors. The settings on record: test compound 1×10^−6 M. Summed up: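 Scintillation read-out. Specific = total − nonspecific (excess cold ligand). Data as % of control specific binding / % inhibition; IC50 by Hill fit; Ki = IC50/(1+L/KD), KD from Scatchard plot.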

The target of a further test is T1, receptors D4.4 (Homo sapiens, UniProt P21917).
T1 sequence (P21917 1-419): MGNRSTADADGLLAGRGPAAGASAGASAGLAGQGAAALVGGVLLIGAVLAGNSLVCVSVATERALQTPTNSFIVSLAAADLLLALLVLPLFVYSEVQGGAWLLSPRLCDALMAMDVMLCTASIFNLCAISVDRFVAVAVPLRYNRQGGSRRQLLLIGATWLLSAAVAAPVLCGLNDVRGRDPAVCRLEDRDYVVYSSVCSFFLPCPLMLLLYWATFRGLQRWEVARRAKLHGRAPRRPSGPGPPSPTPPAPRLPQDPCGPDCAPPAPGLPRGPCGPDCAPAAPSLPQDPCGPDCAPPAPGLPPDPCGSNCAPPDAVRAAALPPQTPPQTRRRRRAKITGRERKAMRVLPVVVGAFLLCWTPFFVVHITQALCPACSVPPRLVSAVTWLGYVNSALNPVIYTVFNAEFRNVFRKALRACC
The test can be described thus: Radioligand binding assay, dopaminergic D4 (D4.4) receptors. The settings on record: test compound 1×10^−6 M. An excerpt:
(§1) The specific ligand binding to the receptors is defined as the difference between the total binding and the non-specific binding determined in the presence of the excess of unlabelled ligand.
(§2) The results are expressed as a percent of control specific binding ((measured specific binding/control specific binding)×100) and as a percent inhibition of control specific binding (100−((measured specific binding/control specific binding)×100)) obtained in the presence of the test compounds. The specific ligand binding to the receptors is defined as the difference between the total binding and the nonspecific binding determined in the presence of an excess of unlabelled ligand. Scintillation counting was the method of detection of ligand binding. The IC50 values (concentration causing a half-maximal inhibition of control specific binding) were determined by non-linear regression analysis of the competition curves generated with mean replicate values using Hill equation curve fitting (Y=D+[(A−D)/(1+(C/C50)nH)], where Y=specific binding, D=minimum specific binding, A=maximum specific binding, C=compound concentration, C50=IC50, and nH=slope factor). This analysis was performed using a software developed at Cerep (Hill software) and validated by comparison with data generated by the commercial software SigmaPlot® 4.0 for Windows® (© 1997 by SPSS Inc.). The inhibition constants (Ki) were calculated using the Cheng Prusoff equation (Ki=IC50/(1+(L/KD)), where L=concentration of radioligand in the assay, and KD=affinity of the radioligand for the receptor). A scatchard plot was used to determine the Kd.
Experimental conditions for tests are given in Table 1, the results of tests for representative compounds are given in Tables 2a and 2b (receptors D2 and D3) and in Table 3 (receptors D4).

The target of the next test is T2, 5-HT6 receptor (Homo sapiens, UniProt P50406).
T2 construct: purchased PerkinElmer
T2 sequence (P50406 whole entry): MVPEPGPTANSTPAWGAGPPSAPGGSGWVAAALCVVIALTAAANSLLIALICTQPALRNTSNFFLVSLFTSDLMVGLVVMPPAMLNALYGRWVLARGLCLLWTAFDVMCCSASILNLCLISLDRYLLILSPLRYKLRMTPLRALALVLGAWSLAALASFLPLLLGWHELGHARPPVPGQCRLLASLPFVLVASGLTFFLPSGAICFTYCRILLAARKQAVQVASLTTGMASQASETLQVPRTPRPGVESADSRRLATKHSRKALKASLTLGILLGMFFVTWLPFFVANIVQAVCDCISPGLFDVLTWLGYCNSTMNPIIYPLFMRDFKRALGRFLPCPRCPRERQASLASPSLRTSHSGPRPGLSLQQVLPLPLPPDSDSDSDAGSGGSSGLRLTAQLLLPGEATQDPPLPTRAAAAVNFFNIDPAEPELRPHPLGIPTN
The test is described as follows: Radioligand binding assay, serotoninergic 5-HT6 receptors. The settings on record: for Ki: read-out: Inhibition constants Ki, 5-HT6. Summed up:
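Values are Ki from Cheng–Prusoff, taking IC50 from Hill nonlinear regression of competition curves and KD from a Scatchard plot. Specific binding was total minus binding with excess unlabelled ligand. Radioligand displacement was detected by scintillation counting, and data were also reported as percent of control specific binding.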

Another test has as its target T3, 5-HT2A receptor (Homo sapiens, UniProt P28223).
T3 construct: purchased PerkinElmer
The test can be described thus: Radioligand binding assay, serotoninergic 5-HT2A receptors. The settings on record: for Ki: read-out: Inhibition constants Ki, 5-HT2A. Summed up:
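Competition curves from scintillation-counted specific binding (total minus binding with excess unlabelled ligand) were Hill-fitted to give IC50, converted to Ki via Cheng-Prusoff using Scatchard-derived Kd.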

A further test concerns the target T4, M3 muscarinic receptors (Homo sapiens, UniProt P20309).
T4 construct: expressed in transfected cells; host or cells: CHO cells
The test can be described thus: Radioligand binding assay, muscarinic M3 receptors. The settings on record: test compound 1×10^−6 M.
Text: as §1, §2
Experimental conditions for tests are given in Table 10, and results of tests for representative compounds are given in Table 11.

Test [2] has as its system α1 adrenergic receptors (rat cerebral cortex). The test can be described thus: Radioligand binding assay, adrenergic α1 receptors. The settings on record: test compound 1×10^−6 M. Summed up:
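Values derive from radioligand displacement, with non-specific binding defined by excess cold ligand and detection by scintillation. Hill-fit IC50s were converted to Ki via Cheng-Prusoff using Scatchard-derived Kd; percent inhibition of control specific binding also reported.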

The mark [3] stands for this setting: binding assay result in %, Table 5a.

T3 sequence (P28223 whole entry): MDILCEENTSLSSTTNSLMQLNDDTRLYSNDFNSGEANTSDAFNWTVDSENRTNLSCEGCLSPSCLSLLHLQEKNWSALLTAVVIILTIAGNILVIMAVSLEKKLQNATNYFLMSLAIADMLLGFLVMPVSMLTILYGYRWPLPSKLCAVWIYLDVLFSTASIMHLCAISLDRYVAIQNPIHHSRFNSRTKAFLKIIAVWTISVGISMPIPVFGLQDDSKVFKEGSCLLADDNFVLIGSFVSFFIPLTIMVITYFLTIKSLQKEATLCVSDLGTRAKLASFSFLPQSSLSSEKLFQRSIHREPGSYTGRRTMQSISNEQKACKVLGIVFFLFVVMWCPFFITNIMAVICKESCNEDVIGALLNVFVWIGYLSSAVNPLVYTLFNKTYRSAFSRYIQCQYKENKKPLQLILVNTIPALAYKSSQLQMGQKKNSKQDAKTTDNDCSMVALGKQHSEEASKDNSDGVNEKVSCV
dopaminergic receptors D3, sequence (P35462 whole entry): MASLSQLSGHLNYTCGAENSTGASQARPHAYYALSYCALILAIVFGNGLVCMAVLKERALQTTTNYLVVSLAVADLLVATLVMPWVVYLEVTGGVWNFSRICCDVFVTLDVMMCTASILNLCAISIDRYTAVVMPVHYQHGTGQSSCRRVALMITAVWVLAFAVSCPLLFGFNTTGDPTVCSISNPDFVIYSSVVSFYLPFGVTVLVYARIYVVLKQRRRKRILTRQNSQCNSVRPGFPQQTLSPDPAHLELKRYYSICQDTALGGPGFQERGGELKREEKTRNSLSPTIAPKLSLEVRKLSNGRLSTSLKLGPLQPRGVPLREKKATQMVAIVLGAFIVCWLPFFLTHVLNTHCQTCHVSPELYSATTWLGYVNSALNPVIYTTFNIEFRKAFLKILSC
T4 sequence (P20309 whole entry): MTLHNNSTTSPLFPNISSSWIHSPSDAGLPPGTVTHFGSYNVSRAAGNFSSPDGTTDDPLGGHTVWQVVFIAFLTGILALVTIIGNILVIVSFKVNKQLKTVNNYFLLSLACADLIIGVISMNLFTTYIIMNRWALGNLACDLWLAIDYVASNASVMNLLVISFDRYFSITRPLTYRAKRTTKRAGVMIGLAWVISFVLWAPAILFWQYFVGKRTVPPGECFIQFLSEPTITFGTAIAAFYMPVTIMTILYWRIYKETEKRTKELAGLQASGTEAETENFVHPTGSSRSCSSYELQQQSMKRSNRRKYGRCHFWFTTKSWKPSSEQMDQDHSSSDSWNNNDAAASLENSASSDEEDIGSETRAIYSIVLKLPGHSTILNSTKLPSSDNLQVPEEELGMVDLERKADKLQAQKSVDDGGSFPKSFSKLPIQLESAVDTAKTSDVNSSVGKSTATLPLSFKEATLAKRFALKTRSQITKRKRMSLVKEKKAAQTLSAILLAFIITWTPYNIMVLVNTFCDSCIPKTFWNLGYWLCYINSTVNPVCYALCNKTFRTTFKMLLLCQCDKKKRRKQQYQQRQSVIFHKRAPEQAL

One may read the inhibition as the drop in the measured response relative to a control, in per cent. The term Ki denotes a measure of affinity in units of concentration, obtained from inhibition or displacement. As for `O=S(=O)(NCC1CN(CCCc2noc3cc(F)ccc23)C1)c1cc2ccccc2s1` [Compound 127, N-[[1-[3-(6-Fluoro-1,2-benzoxazol-3-yl)propyl]azetidin-3-yl]methyl]benzo-thiophene-2-sulphonamide], in test [1], the “D3 [%]” value came to 79%. Further, the inhibition at 1 µM at receptors D4.4 turned out to be 55%; at M3 muscarinic receptors, 1%. At 5-HT6 receptor (setting [3]), the “5-HT6 [%]” value was found to be 96%. Also, the inhibition constant Ki worked out at 18 nM at 5-HT6 receptor and 4.2 nM at 5-HT2A receptor. The “5-HT2A [%]” value at 5-HT2A receptor (setting [3]) was found to be 99%. The “α1 [%]” value in test [2] stood at 93%.

With `COc1cccc(S(=O)(=O)NCC2CN(CCCc3noc4cc(F)ccc34)C2)c1` [Compound 143, N-[[1-[3-(6-Fluoro-1,2-benzoxazol-3-yl)propyl]azetidin-3-yl]methyl]-3-methoxy-benzenesulphonamide], the inhibition at 1 µM in test [1] was 46%; on receptors D4.4, 80%; on 5-HT6 receptor (setting [3]) it was 78%; at 5-HT2A receptor (setting [3]), 94%; on M3 muscarinic receptors it was -4%. Besides, the “α1 [%]” value in test [2] was 97%.

For the compound `O=S(=O)(N[C@H]1CCN(CCCc2noc3cc(F)ccc23)C1)c1ccc2cc(Cl)ccc2c1` [Compound 201, 6-Chloro-N-[(3S)-1-[3-(6-fluoro-1,2-benzoxazol-3-yl)propyl]pyrrolidin-3-yl]naphthalene-2-sulphonamide], the inhibition at 1 µM in test [1] stood at 84%; on receptors D4.4, 50%; at 5-HT6 receptor (setting [3]), 94%; on 5-HT2A receptor (setting [3]), 98%; at M3 muscarinic receptors it was 9%. For the same compound, the Ki at 5-HT6 receptor is 79 nM; on 5-HT2A receptor, 7 nM. In addition, the “α1 [%]” value in test [2] was determined as 82%.

In the case of `O=S(=O)(N[C@H]1CCN(CCCc2noc3cc(F)ccc23)C1)c1ccc2ccccc2c1` [Compound 207, N-[(3S)-1-[3-(6-Fluoro-1,2-benzoxazol-3-yl)propyl]pyrrolidin-3-yl]-naphthalene-2-sulphonamide], the inhibition at 1 µM in test [1] is 85%; at receptors D4.4 it was 85%; at 5-HT6 receptor (setting [3]), 101%; at 5-HT2A receptor (setting [3]) it was 100%; on M3 muscarinic receptors, 12%. In addition, the Ki at 5-HT6 receptor was 7.7 nM; at 5-HT2A receptor, 0.5 nM. In addition, the “α1 [%]” value in test [2] is 95%.

Regarding `Cn1ccc2cc(S(=O)(=O)NC3CCN(CCCc4noc5cc(F)ccc45)C3)ccc21` (stereo not drawn) [Compound 218, N-[1-[3-(6-Fluoro-1,2-benzoxazol-3-yl)propyl]pyrrolidin-3-yl]-1-methyl-indole-5-sulphonamide], the inhibition at 1 µM in test [1] is 95%; at receptors D4.4, 86%; on 5-HT6 receptor (setting [3]) it was 95%; at 5-HT2A receptor (setting [3]), 100%; on M3 muscarinic receptors, 0%.

`Cc1ccc2sc(S(=O)(=O)N[C@H]3CCN(CCCc4noc5cc(F)ccc45)C3)cc2c1` [Compound 229, N-[(3S)-1-[3-(6-Fluoro-1,2-benzoxazol-3-yl)propyl]pyrrolidin-3-yl]-5-methylbenzothiophene-2-sulphonamide]: the inhibition at 1 µM in test [1] is 93%; on receptors D4.4 it was 86%; at 5-HT6 receptor (setting [3]), 98%; on M3 muscarinic receptors, 15%. In addition, the inhibitory constant (Ki) at 5-HT6 receptor amounted to 43 nM; on 5-HT2A receptor it was 0.6 nM. In addition, the “α1 [%]” value in test [2] stood at 89%.

Take `O=S(=O)(NCC1CCN(CCOc2cccc3c2OCCO3)C1)c1ccc(C(F)(F)F)cc1` (stereo not drawn) [Compound 293, N-[[1-[2-(2,3-Dihydro-1,4-benzodioxin-5-yloxy)ethyl]pyrrolidin-3-yl]methyl]-4-(trifluoromethyl)benzenesulphonamide]: the inhibition at 1 µM in test [1] came to 60%; at receptors D4.4, 35%; on 5-HT6 receptor (setting [3]) it was 47%; on 5-HT2A receptor (setting [3]), 86%; on M3 muscarinic receptors it was 10%. In addition, the “α1 [%]” value in test [2] was found to be 77%.

On to `O=S(=O)(NCC1CCN(CCOc2cccc3c2OCCO3)C1)c1cccc(F)c1` (stereo not drawn) [Compound 298, N-[[1-[2-(2,3-Dihydro-1,4-benzodioxin-5-yloxy)ethyl]pyrrolidin-3-yl]-methyl]-3-fluoro-benzenesulphonamide], for which the inhibition at 1 µM in test [1] is 35%; on receptors D4.4 it was 48%; at 5-HT6 receptor (setting [3]), 40%; on 5-HT2A receptor (setting [3]), 88%; on M3 muscarinic receptors, 22%. For the same compound, in test [2], the “α1 [%]” value amounted to 77%.

Regarding `O=S(=O)(NCC1CCN(CCOc2cccc3c2OCCO3)C1)c1ccc(F)cc1` (stereo not drawn) [Compound 300, N-[[1-[2-(2,3-Dihydro-1,4-benzodioxin-5-yloxy)ethyl]pyrrolidin-3-yl]-methyl]-4-fluoro-benzenesulphonamide], the inhibition at 1 µM in test [1] was 30%; on receptors D4.4, 52%; at 5-HT6 receptor (setting [3]), 38%; at 5-HT2A receptor (setting [3]) it was 72%; on M3 muscarinic receptors, -2%. Moreover, the “α1 [%]” value in test [2] worked out at 83%.

With `O=S(=O)(NCC1CCN(CCOc2cccc3c2OCCO3)C1)c1cccc(O)c1` (stereo not drawn) [Compound 303, N-[[1-[2-(2,3-Dihydro-1,4-benzodioxin-5-yloxy)ethyl]pyrrolidin-3-yl]-methyl]-3-hydroxy-benzenesulphonamide], the inhibition at 1 µM is 52% in test [1]; 39% at receptors D4.4; 48% at 5-HT6 receptor (setting [3]); 96% at 5-HT2A receptor (setting [3]); 9% at M3 muscarinic receptors. Also, the “α1 [%]” value in test [2] is on record as 89%.

On to `O=S(=O)(NCC1CCN(CCOc2cccc3c2OCCO3)C1)c1ccc(Br)cc1` (stereo not drawn) [Compound 305, 4-Bromo-N-[[1-[2-(2,3-dihydro-1,4-benzodioxin-5-yloxy)ethyl]pyrrolidin-3-yl]methyl]benzenesulphonamide], for which the inhibition at 1 µM in test [1] amounted to 48%; at receptors D4.4, 52%; on 5-HT6 receptor (setting [3]), 52%; at 5-HT2A receptor (setting [3]), 93%; on M3 muscarinic receptors it was 11%. Moreover, in test [2], the “α1 [%]” value was found to be 84%.

Regarding `O=S(=O)(NCC1CCN(CCOc2cccc3c2OCCO3)C1)c1ccc2c(c1)CCO2` (stereo not drawn) [Compound 306, N-[[1-[2-(2,3-Dihydro-1,4-benzodioxin-5-yloxy)ethyl]pyrrolidin-3-yl]-methyl]-2,3-dihydrobenzofuran-5-sulphonamide], the inhibition at 1 µM in test [1] is 26%; on receptors D4.4, 33%; on 5-HT6 receptor (setting [3]), 45%; at 5-HT2A receptor (setting [3]), 81%; on M3 muscarinic receptors, 12%. In addition, the “α1 [%]” value in test [2] is on record as 90%.

In the case of `O=S(=O)(NCC1CCN(CCOc2cccc3c2OCCO3)C1)c1ccc(F)c(Cl)c1` (stereo not drawn) [Compound 317, 3-Chloro-N-[[1-[2-(2,3-dihydro-1,4-benzodioxin-5-yloxy)ethyl]pyrrolidin-3-yl]methyl]-4-fluorobenzenesulphonamide], the inhibition at 1 µM turned out to be 49% in test [1]; 59% on receptors D4.4; 76% at 5-HT6 receptor (setting [3]); 72% at 5-HT2A receptor (setting [3]); 8% at M3 muscarinic receptors. In addition, in test [2], the “α1 [%]” value stood at 84%.
